According to BindingDB's records for doi:10.1016/0960-894X(95)00370-9 (1995):

Target: Type-1 angiotensin II receptor A (Rattus norvegicus) (UniProt P25095)
Assay: Tested for binding affinity against angiotensin II receptor in rat adrenal cortex

Type-1 angiotensin II receptor A (Rattus norvegicus), sequence (P25095 whole entry, looked up): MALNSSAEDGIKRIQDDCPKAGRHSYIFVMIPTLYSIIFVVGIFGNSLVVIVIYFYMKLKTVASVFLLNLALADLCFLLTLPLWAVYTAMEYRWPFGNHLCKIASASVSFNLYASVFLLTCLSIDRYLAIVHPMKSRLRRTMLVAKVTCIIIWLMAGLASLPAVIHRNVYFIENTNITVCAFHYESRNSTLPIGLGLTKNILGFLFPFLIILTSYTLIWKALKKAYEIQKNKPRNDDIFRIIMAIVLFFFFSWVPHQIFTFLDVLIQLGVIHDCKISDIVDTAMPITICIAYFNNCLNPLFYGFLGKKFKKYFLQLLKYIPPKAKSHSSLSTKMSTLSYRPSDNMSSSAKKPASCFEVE

| SMILES | IC50 |
| --- | --- |
| CCCc1cc(=O)n(CCN2C(=O)c3ccccc3C2=O)c(=O)n1Cc1ccc(-c2ccccc2-c2nnn[nH]2)cc1 [2-(2-{2,6-Dioxo-4-propyl-3-[2'-(1H-tetrazol-5-yl)-biphenyl-4-ylmethyl]-3,6-dihydro-2H-pyrimidin-1-yl}-ethyl)-isoindole-1,3-dione] | 4.4 nM |
| CCCc1cc(=O)n(CCNC(=O)C(c2ccccc2)c2ccccc2)c(=O)n1Cc1ccc(-c2ccccc2-c2nnn[nH]2)cc1 [N-(2-{2,6-Dioxo-4-propyl-3-[2'-(1H-tetrazol-5-yl)-biphenyl-4-ylmethyl]-3,6-dihydro-2H-pyrimidin-1-yl}-ethyl)-2,2-diphenyl-acetamide] | 14 nM |
